Measured values reported in ChEMBL document CHEMBL5120826, “Effects of β-lapachone and β-nor-lapachone on multidrug efflux transporters and biofilms of Candida glabrata” (Bioorg Med Chem, 2022).
Converted amounts (≈) assume the structure as drawn. The source made the active and inactive calls. The calls are words filed in the database; no cut-off is given here.

Tests used:
Saccharomyces cerevisiae [1] = test: Induction of ROS generation in fluconazole resistant Saccharomyces cerevisiae overexpressing CgCdr1p transporter assessed as fold increase in ROS level incubated for 90 mins by DCFH-DA dye based fluorescence assay; type: functional; conditions: 1.5 h
Nakaseomyces glabratus [2] = test: Indifferent antifungal activity against fluconazole resistant Candida glabrata 109 overexpressing CgCdr1p transporter assessed as reduction in fungal growth incubated for 48 hrs in presence of lapachone by checkboard assay based microplate reader analysis; type: functional
Nakaseomyces glabratus [3] = test: Indifferent antifungal activity against fluconazole resistant Candida glabrata 109 overexpressing CgCdr1p transporter assessed as reduction in fungal growth incubated for 48 hrs by checkboard assay based microplate reader analysis; type: functional
Nakaseomyces glabratus [4] = test: Induction of morphological changes in fluconazole resistant Candida glabrata 109 overexpressing CgCdr1p transporter assessed as decrease in cellular density at 200 ug/ml by calcofluor white dye based confocal laser scanning microscopy; type: functional, organism-based; conditions: dose 200.0 µg/ml
Nakaseomyces glabratus [5] = test: Indifferent antifungal activity against fluconazole resistant Candida glabrata 109 overexpressing CgCdr1p transporter assessed as reduction in fungal growth incubated for 48 hrs in presence of fluconazole by checkboard assay based microplate reader analysis; type: functional
Nakaseomyces glabratus [6] = test: Indifferent antifungal activity against fluconazole sensitive Candida glabrata ATCC 2001 assessed as fractional inhibitory concentration incubated for 48 hrs in presence of lapachone by checkboard assay based microplate reader analysis; type: functional
Nakaseomyces glabratus [7] = test: Indifferent antifungal activity against fluconazole sensitive Candida glabrata ATCC 2001 assessed as reduction in fungal growth incubated for 48 hrs in presence of lapachone by checkboard assay based microplate reader analysis; type: functional
Nakaseomyces glabratus [8] = test: Effect on efflux pump function in fluconazole resistant Candida glabrata 109 overexpressing CgCdr1p transporter assessed as accumulation of Nile red fluorescence incubated for 1 hr by fluorescence based assay; type: functional
Saccharomyces cerevisiae [9] = test: Antifungal activity against fluconazole resistant Saccharomyces cerevisiae overexpressing CgCdr2p transporter assessed as reduction in fungal growth incubated for 48 hrs by checkboard assay based microplate reader analysis; type: functional
Nakaseomyces glabratus [10] = test: Additive antifungal activity against fluconazole resistant Candida glabrata 109 overexpressing CgCdr1p transporter assessed as fractional inhibitory concentration index incubated for 48 hrs by checkboard assay based microplate reader analysis; type: functional
Nakaseomyces glabratus [11] = test: Additive antifungal activity against fluconazole resistant Candida glabrata 109 overexpressing CgCdr1p transporter assessed as fractional inhibitory concentration incubated for 48 hrs in presence of lapachone by checkboard assay based microplate reader analysis; type: functional
Saccharomyces cerevisiae [12] = test: Antifungal activity against fluconazole resistant Saccharomyces cerevisiae overexpressing CgCdr1p transporter assessed as reduction in fungal growth at lower concentration incubated for 48 hrs by serial dilution method; type: functional, organism-based
Saccharomyces cerevisiae [13] = test: Effect on efflux pump function in fluconazole resistant Saccharomyces cerevisiae overexpressing CgCdr1p transporter assessed as accumulation of Nile red fluorescence incubated for 1 hr by fluorescence based assay; type: functional
Saccharomyces cerevisiae [14] = test: Effect on efflux pump function in fluconazole resistant Saccharomyces cerevisiae overexpressing CgCdr2p transporter assessed as accumulation of Nile red fluorescence incubated for 1 hr by fluorescence based assay; type: functional
Saccharomyces cerevisiae [15] = test: Inhibition of fluconazole resistant Saccharomyces cerevisiae overexpressing CgCdr1p transporter ATPase activity assessed as reduction in inorganic phosphate release in presence of ATP incubated for 1 hr by Fiske and Sub barrow method; conditions: concentration not given here
Nakaseomyces glabratus [16] = test: Antibiofilm activity against fluconazole resistant Candida glabrata 109 overexpressing CgCdr1p transporter assessed as inhibition of biofilm formation at 200 ug/ml incubated for 48 hrs; type: functional
Nakaseomyces glabratus [17] = test: Additive antifungal activity against fluconazole resistant Candida glabrata 109 overexpressing CgCdr1p transporter assessed as fractional inhibitory concentration incubated for 48 hrs in presence of fluconazole by checkboard assay based microplate reader analysis; type: functional
Nakaseomyces glabratus [18] = test: Indifferent antifungal activity against fluconazole sensitive Candida glabrata ATCC 2001 assessed as reduction in fungal growth incubated for 48 hrs in presence of fluconazole by checkboard assay based microplate reader analysis; type: functional
Nakaseomyces glabratus [19] = test: Induction of morphological changes in fluconazole resistant Candida glabrata 109 overexpressing CgCdr1p transporter assessed as decrease in biofilm thickness at 200 ug/ml by calcofluor white dye based confocal laser scanning microscopy; type: functional, organism-based; conditions: dose 200.0 µg/ml
Nakaseomyces glabratus [20] = test: Additive antifungal activity against fluconazole resistant Candida glabrata 109 overexpressing CgCdr1p transporter assessed as reduction in fungal growth incubated for 48 hrs in presence of lapachone by checkboard assay based microplate reader analysis; type: functional
Nakaseomyces glabratus [21] = test: Induction of ROS generation in fluconazole resistant Candida glabrata 109 overexpressing CgCdr1p transporter assessed as fold increase in ROS production at 200 ug/ml incubated for 48 hrs by DCFH-DA dye based fluorescence assay; type: functional
Nakaseomyces glabratus [22] = test: Antibiofilm activity against fluconazole sensitive Candida glabrata ATCC 2001 assessed as reduction in metabolic activity up to 200 ug/ml incubated for 48 hrs; type: functional; design: scale not given: the % may be the effect or the level left; conditions: dose <= 200 µg/ml, up to 200 µg/mL
Nakaseomyces glabratus [23] = test: Antifungal activity against fluconazole resistant Candida glabrata 109 overexpressing CgCdr1p transporter assessed as reduction in fungal growth incubated for 48 hrs in presence of fluconazole by serial dilution method; type: functional, organism-based
Nakaseomyces glabratus [24] = test: Indifferent antifungal activity against fluconazole resistant Candida glabrata 109 overexpressing CgCdr1p transporter assessed as fractional inhibitory concentration index incubated for 48 hrs by checkboard assay based microplate reader analysis; type: functional
Nakaseomyces glabratus [25] = test: Antibiofilm activity against fluconazole sensitive Candida glabrata ATCC 2001 assessed as inhibition of biofilm formation at 200 ug/ml incubated for 48 hrs; type: functional
Nakaseomyces glabratus [26] = test: Antifungal activity against fluconazole sensitive Candida glabrata ATCC 2001 assessed as reduction in fungal growth incubated for 48 hrs by checkboard assay based microplate reader analysis; type: functional
Nakaseomyces glabratus [27] = test: Indifferent antifungal activity against fluconazole sensitive Candida glabrata ATCC 2001 assessed as fractional inhibitory concentration index incubated for 48 hrs by checkboard assay based microplate reader analysis; type: functional
[28] = Inhibition of fluconazole sensitive Candida glabrata ATCC 2001 […] cell adhesion to polystyrene at 200 ug/ml incubated for 90 mins by MTT assay; type: functional; conditions: Nakaseomyces glabratus, ATCC 2001, 1.5 h
Nakaseomyces glabratus [29] = test: Additive antifungal activity against fluconazole resistant Candida glabrata 109 overexpressing CgCdr1p transporter assessed as reduction in fungal growth incubated for 48 hrs in presence of fluconazole by checkboard assay based microplate reader analysis; type: functional
Nakaseomyces glabratus [30] = test: Indifferent antifungal activity against fluconazole sensitive Candida glabrata ATCC 2001 assessed as fractional inhibitory concentration incubated for 48 hrs in presence of fluconazole by checkboard assay based microplate reader analysis; type: functional
Saccharomyces cerevisiae [31] = test: Synergistic antifungal activity against fluconazole resistant Saccharomyces cerevisiae overexpressing CgCdr2p transporter assessed as fractional inhibitory concentration index incubated for 48 hrs by checkboard assay based microplate reader analysis; type: functional
Saccharomyces cerevisiae [32] = test: Induction of ROS generation in fluconazole resistant Saccharomyces cerevisiae overexpressing CgCdr2p transporter assessed as fold increase in ROS level incubated for 90 mins by DCFH-DA dye based fluorescence assay; type: functional; conditions: 1.5 h
Saccharomyces cerevisiae [33] = test: Antifungal activity against fluconazole resistant Saccharomyces cerevisiae overexpressing CgCdr1p transporter assessed as reduction in fungal growth incubated for 48 hrs by checkboard assay based microplate reader analysis; type: functional
Nakaseomyces glabratus [34] = test: Antifungal activity against fluconazole resistant Candida glabrata 109 overexpressing CgCdr1p transporter assessed as reduction in fungal growth incubated for 48 hrs by checkboard assay based microplate reader analysis; type: functional

| Structure (SMILES) | fold change (FC) (Saccharomyces cerevisiae [1]) | MIC (Nakaseomyces glabratus [2]) [µg/mL] | MIC (Nakaseomyces glabratus [3]) [µg/mL] | Activity (Nakaseomyces glabratus [4]) | MIC (Nakaseomyces glabratus [5]) [µg/mL] | FIC (Nakaseomyces glabratus [6]) [µg/mL] | MIC (Nakaseomyces glabratus [7]) [µg/mL] | Activity (Nakaseomyces glabratus [8]) [%] | MIC (Saccharomyces cerevisiae [9]) [µg/mL] | fractional inhibitory concentration index (FICI) (Nakaseomyces glabratus [10]) | FIC (Nakaseomyces glabratus [11]) [µg/mL] | Activity (Saccharomyces cerevisiae [12]) | Activity (Saccharomyces cerevisiae [13]) [%] | Activity (Saccharomyces cerevisiae [14]) [%] | inhibition (Saccharomyces cerevisiae [15]) [%] | inhibition at 200 µg/mL (Nakaseomyces glabratus [16]) [%] | FIC (Nakaseomyces glabratus [17]) [µg/mL] | MIC (Nakaseomyces glabratus [18]) [µg/mL] | Activity (Nakaseomyces glabratus [19]) | MIC (Nakaseomyces glabratus [20]) [µg/mL] | other results |
| --- | --- | --- | --- | --- | --- | --- | --- | --- | --- | --- | --- | --- | --- | --- | --- | --- | --- | --- | --- | --- | --- |
| CC1(C)CCC2=C(O1)c1ccccc1C(=O)C2=O [LAPACHONE] | 3 | > 200 | > 200 | Active | > 1000 | 1 | 12.5 | 35 | 25 (≈ 103 µM) | 0.625 | 0.5 | Active | 100 | 50 | 76 | 72 | 0.125 | 15.6 | Active | 12.5 | fold change (FC) (Nakaseomyces glabratus [21]; dose 200 µg/ml): 16; Activity (Nakaseomyces glabratus [22]): 93%; Activity (Nakaseomyces glabratus [23]): Active; fractional inhibitory concentration index (FICI) (Nakaseomyces glabratus [24]): 2; inhibition at 200 µg/mL (Nakaseomyces glabratus [25]): 95%; MIC (Nakaseomyces glabratus [26]): 12.5 µg/mL (≈ 51.6 µM); fractional inhibitory concentration index (FICI) (Nakaseomyces glabratus [27]): 2; inhibition at 200 µg/mL [28]: 55%; MIC (Nakaseomyces glabratus [29]): 31.2 µg/mL; FIC (Nakaseomyces glabratus [30]): 1 µg/mL; fractional inhibitory concentration index (FICI) (Saccharomyces cerevisiae [31]): 0.31; fold change (FC) (Saccharomyces cerevisiae [32]): 3; MIC (Saccharomyces cerevisiae [33]): 100 µg/mL (≈ 413 µM); MIC (Nakaseomyces glabratus [34]): 25 µg/mL (≈ 103 µM) |
| CC1(C)CC2=C(O1)c1ccccc1C(=O)C2=O [NOR-BETA-LAPACHONE] | 3 | > 200 | > 200 | Active | > 1000 | 1 | 100 | 100 | 25 (≈ 110 µM) | 0.625 | 0.5 | Active | 100 | 50 | 25 | 48 | 0.125 | 15.6 | Active | 50 | Activity (Nakaseomyces glabratus [21]; dose 200.0 µg/ml): Active; Activity (Nakaseomyces glabratus [22]): 81%; Activity (Nakaseomyces glabratus [23]): Active; fractional inhibitory concentration index (FICI) (Nakaseomyces glabratus [24]): 2; inhibition at 200 µg/mL (Nakaseomyces glabratus [25]): 70%; MIC (Nakaseomyces glabratus [26]): 15.6 µg/mL (≈ 68.3 µM); fractional inhibitory concentration index (FICI) (Nakaseomyces glabratus [27]): 2; inhibition at 200 µg/mL [28]: 28%; MIC (Nakaseomyces glabratus [29]): 31.2 µg/mL; FIC (Nakaseomyces glabratus [30]): 1 µg/mL; fractional inhibitory concentration index (FICI) (Saccharomyces cerevisiae [31]): 0.37; fold change (FC) (Saccharomyces cerevisiae [32]): 3; MIC (Saccharomyces cerevisiae [33]): 50 µg/mL (≈ 219 µM); MIC (Nakaseomyces glabratus [34]): 100 µg/mL (≈ 438 µM) |
